Entries after “also recorded” stand apart in the source; their conditions may differ. Structures can show the parent of a compound that is named as a salt.
Tests used:
Assay type in all cases: physicochemical
[1] = Hydration studies in methanol/water mixtures; conditions: MeOH/water mixtures, water activity 0.2, 0.6, 0.8, about 24 hours
Method: (§1) The following procedure was used during the hydration studies: • Approximately 20 mg of phosphate form 1 (Example 3) and L-tartrate form 1 (Example 5) were weighed into 2 mL glass vials. • Selected methanol/deionized water mixtures (see Table 5) were added to each sample in 100 μL aliquots until a mobile slurry was observed. • The slurries were agitated at ambient temperature for about 24 hours. • The slurries were collected and filtered via centrifugation. • The isolated solids were analyzed by XRPD. • The pH of the mother liquors were recorded.

[2] = Thermodynamic solubility in PBS buffer pH 7.4
Method: The thermodynamic solubility of freebase (example 1), phosphate form 1 (example 3) and L-tartrate form 1 (example 5) were assessed in phosphate buffered saline (PBS) buffer at pH 7.4 according to the following procedure: • Approximately 30 mg of each form was weighed into 2 mL glass vials. • 100 μL of buffer solution was added to each vial until partial dissolution was observed. • The observed slurries were agitated at ambient temperature for about 24 hours. • The samples were collected, and observations were recorded. • The samples were filtered via centrifugation. • The pH of the mother liquors were recorded. • The concentration of the mother liquors were recorded by HPLC.

[3] = Salt disproportionation studies in deionized water; conditions: about 24 hours
Method: as §1, with “salt disproportionation” for “hydration”, “Deionized” for “Selected methanol/deionized”, “was” for “mixtures (see Table 5) were”

[4] = 1-week stability studies (XRPD, HPLC); conditions: 1 week; ambient temperature, light and humidity; 40° C./75% RH; 80° C.
Method: The isolated 1-methyl-1,4,5,10-tetrahydropyrazolo[3,4-b][1,5]benzodiazepine freebase was characterized by TG/DTA, DSC, DVS with post-DVS, XRPD, HPLC, ^1H NMR and LC-MS, as per the methods detailed above. The 1-methyl-1,4,5,10-tetrahydropyrazolo[3,4-b][1,5]benzodiazepine freebase was stored at 40° C./75% relative humidity (RH) for 1 week to determine the stability of the material at increased RH and to identify potential hydrate formation.
One-week stability studies were conducted on the freebase (example 1), phosphate form 1 (example 3) and L-tartrate form 1 (example 5) salts using the following procedures: • Approximately 20 mg of each form was weighed into 3×2 mL glass vials. • One vial for each form was stored under the following conditions for 1-week: • 1. Ambient temperature, light and humidity (unsealed vial) • 2. 40° C./75% RH (unsealed vial) • 3. 80° C. (sealed vial) • The samples were collected after 1-week and observations were made. • The solids were analyzed by XRPD and HPLC.

[5] = Dynamic / gravimetric vapour sorption (DVS/GVS) hygroscopicity
Method: Approximately, 10-20 mg of sample was placed into a mesh vapour sorption balance pan and loaded into a DVS Intrinsic dynamic vapour sorption balance by Surface Measurement Systems. The sample was subjected to a ramping profile from 40-90% relative humidity (RH) at 10% increments, maintaining the sample at each step until a stable weight had been achieved (dm/dt 0.004%, minimum step length 30 minutes, maximum step length 500 minutes) at 25° C. After completion of the sorption cycle, the sample was dried using the same procedure to 0% RH and then a second sorption cycle back to 40% RH. Two cycles were performed. The weight change during the sorption/desorption cycles were plotted, allowing for the hygroscopic nature of the sample to be determined. XRPD analysis was then carried out on any solid retained.
Approximately 10-20 mg of sample was placed into a mesh vapour sorption balance pan and loaded into an IGASorp Moisture Sorption Analyser balance by Hiden Analytical. The sample was subjected to a ramping profile from 40-90% relative humidity (RH) at 10% increments, maintaining the sample at each step until a stable weight had been achieved (98% step completion, minimum step length 30 minutes, maximum step length 60 minutes) at 25° C. After completion of the sorption cycle, the sample was dried using the same procedure to 0% RH, and finally taken back to the starting point of 40% RH. Two cycles were performed. The weight change during the sorption/desorption cycles were plotted, allowing for the hygroscopic nature of the sample to be determined.

[6] = Primary salt screen: XRPD pattern after drying and after 40° C./75% RH
Method: The following procedure was used: • Approximately 30 mg of 1-methyl-1,4,5,10-tetrahydropyrazolo[3,4-b][1,5]benzodiazepine freebase was weighed into 5×1.5 mL glass vials. • 300 μL of selected solvent system was added to each vial to form a mobile slurry, and a beige slurry was observed. • 1.05 (or 0.525 for the hemi experiments) equivalents of acid counterion (see Table 1) was added to each sample and initial observations were recorded. • The samples were temperature cycled between ambient and 40° C. in 4-hour cycles for about 72 hours. • The samples were collected, and observations made. • Samples in which solids were observed were filtered via centrifugation and the solids were loaded onto a multi-well XRPD plate and analyzed by XRPD. • Samples in which no solids were observed were uncapped and left undisturbed to allow evaporation at ambient temperature.

**Q.** With Cn1ncc2c1Nc1ccccc1NC2 [Phosphate form 1, phosphoric acid addition salt of 1-methyl-1,4,5,10-tetrahydropyrazolo[3,4-b][1,5]benzodiazepine] as the molecule, how does the “change in XRPD pattern” value [1] read?
**A.** The value was “No change in XRPD pattern”.

**Q.** What about the hydrate formation [1] of the same molecule?
**A.** Its hydrate formation is “Hydrate formation was not observed; also recorded: No evidence”.

**Q.** And the solubility ([2]; PBS buffer at pH 7.4, ambient temperature, about 24 hours, HPLC)?
**A.** The solubility was 7400 µg/mL.

**Q.** What about the “pH (t = 24 h)” value ([2]; mother liquor of PBS pH 7.4 slurry) of the same molecule?
**A.** Its value is 3.48.

**Q.** What about the “change in XRPD pattern” value ([3]; material slurried in water) of the same molecule?
**A.** The value was “No change in XRPD pattern”.

**Q.** What about the salt disproportionation ([3]; slurry in deionized water, ambient temperature) of the same molecule?
**A.** Its salt disproportionation is “Salt disproportionation was not observed; also recorded: No evidence”.

**Q.** What about the “changes in form by XRPD” value [4] of the same molecule?
**A.** The value was “no changes in form”.

**Q.** What about the “changes in purity by HPLC” value [4] of the same molecule?
**A.** The value was “did not identify any significant changes in purity”.

**Q.** And the “change in form by XRPD post-DVS analysis” value [5]?
**A.** Its value is “No evidence of form changes or hydrate formation”.

**Q.** And the hygroscopicity ([5]; DVS, 25° C.)?
**A.** The hygroscopicity was “slightly hygroscopic”.

**Q.** And the DVS mass increase ([5]; at 90% RH)?
**A.** Its DVS mass increase is “about 0.4%”.

**Q.** What about the “thermal stability and hygroscopicity” value ([6]; conclusion of salt screen) of the same molecule?
**A.** Its value is “acceptable thermal stability and hygroscopicity”.

**Q.** What about the “Post-Drying (XRPD pattern)” value ([6]; oven at 40° C. for about 24 hours, listed as Phosphate pattern 1) of the same molecule?
**A.** Its value is “Pattern 1”.

**Q.** What about the “Comments (stability)” value ([6]; salt screen summary) of the same molecule?
**A.** The value was “Good”.

**Q.** And the “Post 40° C./75% RH (XRPD pattern)” value ([6]; stability chamber at 40° C./75% RH for about 24 hours, listed as Phosphate pattern 1)?
**A.** Its value is “Pattern 1”.
